In paper PMC11859928, “Design, Synthesis, and Antiproliferative Activity of Novel Indole/1,2,4-Triazole Hybrids as Tubulin Polymerization Inhibitors” (Pharmaceuticals, 2025):

What was measured:
Test in all cases: NCI one-dose assay
TK-10 = assay type: cell-based; conditions: Homo sapiens, TK-10, Renal cancer, read-out: Cell growth inhibition %
Protocol: (§1) The National Cancer Institute (NCI), Bethesda, USA, selected the final compounds 6a–j and 7a–j for in vitro anticancer screening. An initial in vitro single-dose anticancer experiment was performed with the entire NCI 60 cell lines derived from nine tumor subpanel cancer cell lines. The results for each compound were illustrated as a mean graph showing the percentage growth of treated cells compared to untreated control cells (see Supplementary Materials).
(§2) The NCI anticancer screening process has been thoroughly detailed. The Drug Evaluation Branch of the National Cancer Institute in Bethesda, […], USA, established the procedure and conducted the anticancer assay on 60 human tumor cell lines from nine neoplastic cancers.

SK-MEL-5 = assay type: cell-based; conditions: Homo sapiens, SK-MEL-5, Melanoma, read-out: Cell growth inhibition %
Protocol: as §1, §2

IGROV1 = assay type: cell-based; conditions: Homo sapiens, IGROV-1, IGROV1, Ovarian cancer, read-out: Cell growth inhibition %
Protocol: as §1, §2

MALME-3M = assay type: cell-based; conditions: Homo sapiens, Melanoma, read-out: Cell growth inhibition %
Protocol: as §1, §2

HL-60(TB) = assay type: cell-based; conditions: Homo sapiens, Leukemia, read-out: Cell growth inhibition %
Protocol: as §1, §2

U251 = assay type: cell-based; conditions: Homo sapiens, U-251, U251, CNS cancer, read-out: Cell growth inhibition %
Protocol: as §1, §2

SF-539 = assay type: cell-based; conditions: Homo sapiens, SF-539, CNS cancer, read-out: Cell growth inhibition %
Protocol: as §1, §2

M14 = assay type: cell-based; conditions: Homo sapiens, M14, Melanoma, read-out: Cell growth inhibition %
Protocol: as §1, §2

MDA-MB-231/ATCC = assay type: cell-based; conditions: Homo sapiens, Breast cancer, read-out: Cell growth inhibition %
Protocol: as §1, §2

NCI-H23 = assay type: cell-based; conditions: Homo sapiens, NCI-H23, Non-small cell lung cancer, read-out: Cell growth inhibition %
Protocol: as §1, §2

HCC-2998 = assay type: cell-based; conditions: Homo sapiens, HCC-2998, Colon cancer, read-out: Cell growth inhibition %
Protocol: as §1, §2

SK-MEL-28 = assay type: cell-based; conditions: Homo sapiens, SK-MEL-28, Melanoma, read-out: Cell growth inhibition %
Protocol: as §1, §2

DU-145 = assay type: cell-based; conditions: Homo sapiens, DU-145, Prostate cancer, read-out: Cell growth inhibition %
Protocol: as §1, §2

SN12C = assay type: cell-based; conditions: Homo sapiens, Renal cancer, read-out: Cell growth inhibition %
Protocol: as §1, §2

NCI/ADR-RES = assay type: cell-based; conditions: Homo sapiens, Ovarian cancer, read-out: Cell growth inhibition %
Protocol: as §1, §2

UACC-257 = assay type: cell-based; conditions: Homo sapiens, UACC-257, Melanoma, read-out: Cell growth inhibition %
Protocol: as §1, §2

SNB-19 = assay type: cell-based; conditions: Homo sapiens, SNB-19, CNS cancer, read-out: Cell growth inhibition %
Protocol: as §1, §2

NCI-H522 = assay type: cell-based; conditions: Homo sapiens, NCI-H522, Non-small cell lung cancer, read-out: Cell growth inhibition %
Protocol: as §1, §2

T-47D = assay type: cell-based; conditions: Homo sapiens, T47D, Breast cancer, read-out: Cell growth inhibition %
Protocol: as §1, §2

OVCAR-3 = assay type: cell-based; conditions: Homo sapiens, OVCAR-3, Ovarian cancer, read-out: Cell growth inhibition %
Protocol: as §1, §2

A549/ATCC = assay type: cell-based; conditions: Homo sapiens, Non-small cell lung cancer, read-out: Cell growth inhibition %
Protocol: as §1, §2

SR = assay type: cell-based; conditions: Homo sapiens, Leukemia, read-out: Cell growth inhibition %
Protocol: as §1, §2

SW-620 = assay type: cell-based; conditions: Homo sapiens, SW-620, Colon cancer, read-out: Cell growth inhibition %
Protocol: as §1, §2

OVCAR-4 = assay type: cell-based; conditions: Homo sapiens, OVCAR-4, Ovarian cancer, read-out: Cell growth inhibition %
Protocol: as §1, §2

SK-OV-3 = assay type: cell-based; conditions: Homo sapiens, SK-OV-3, Ovarian cancer, read-out: Cell growth inhibition %
Protocol: as §1, §2

SF-268 = assay type: cell-based; conditions: Homo sapiens, SF-268, CNS cancer, read-out: Cell growth inhibition %
Protocol: as §1, §2

HT29 = assay type: cell-based; conditions: Homo sapiens, HT-29, HT29, Colon cancer, read-out: Cell growth inhibition %
Protocol: as §1, §2

OVCAR-5 = assay type: cell-based; conditions: Homo sapiens, OVCAR-5, Ovarian cancer, read-out: Cell growth inhibition %
Protocol: as §1, §2

HS 578 T = assay type: cell-based; conditions: Homo sapiens, Breast cancer, read-out: Cell growth inhibition %
Protocol: as §1, §2

OVCAR-8 = assay type: cell-based; conditions: Homo sapiens, OVCAR-8, Ovarian cancer, read-out: Cell growth inhibition %
Protocol: as §1, §2

NCI-H460 = assay type: cell-based; conditions: Homo sapiens, NCI-H460, Non-small cell lung cancer, read-out: Cell growth inhibition %
Protocol: as §1, §2

EKVX = assay type: cell-based; conditions: Homo sapiens, Non-small cell lung cancer, read-out: Cell growth inhibition %
Protocol: as §1, §2

K-562 = assay type: cell-based; conditions: Homo sapiens, K562, K-562, Leukemia, read-out: Cell growth inhibition %
Protocol: as §1, §2

HOP-92 = assay type: cell-based, human; conditions: Homo sapiens, HOP-92, HOP-92, Non-small cell lung cancer, read-out: Cell growth inhibition %
Protocol: as §1, §2

UO-31 = assay type: cell-based, human; conditions: Homo sapiens, UO-31, UO-31, Renal cancer, read-out: Cell growth inhibition %
Protocol: as §1, §2

786-0 = assay type: cell-based, human; conditions: Homo sapiens, 786-0, 786-0, Renal cancer, read-out: Cell growth inhibition %
Protocol: as §1, §2

Compound	inhibition at 10 µM (TK-10) [%]	inhibition at 10 µM (SK-MEL-5) [%]	inhibition at 10 µM (IGROV1) [%]	inhibition at 10 µM (MALME-3M) [%]	inhibition at 10 µM (HL-60(TB)) [%]	inhibition at 10 µM (U251) [%]	inhibition at 10 µM (SF-539) [%]	inhibition at 10 µM (M14) [%]	inhibition at 10 µM (MDA-MB-231/ATCC) [%]	inhibition at 10 µM (NCI-H23) [%]	inhibition at 10 µM (HCC-2998) [%]	inhibition at 10 µM (SK-MEL-28) [%]	inhibition at 10 µM (DU-145) [%]	inhibition at 10 µM (SN12C) [%]	inhibition at 10 µM (NCI/ADR-RES) [%]	inhibition at 10 µM (UACC-257) [%]	inhibition at 10 µM (SNB-19) [%]	inhibition at 10 µM (NCI-H522) [%]	inhibition at 10 µM (T-47D) [%]	inhibition at 10 µM (OVCAR-3) [%]	other results
O/N=C(\CSc1nnc(-c2c[nH]c3ccccc23)n1-c1ccccc1)c1ccc(Cl)cc1 [Compound 7j, (Z)-2-((5-(1H-Indol-3-yl)-4-phenyl-4H-1,2,4-triazol-3-yl)thio)-1-(4-chlorophenyl) Ethanone Oxime]	123	78.8	134	88.9	126	69.5	70.5	147	155	52.7	83	78.8	131	116	170	55.7	82.6	87.6	96.1	65.8	inhibition at 10 µM (A549/ATCC): 78.5%; inhibition at 10 µM (SR): 87.2%; inhibition at 10 µM (SW-620): 137%; inhibition at 10 µM (OVCAR-4): 181%; inhibition at 10 µM (SK-OV-3): 102%; inhibition at 10 µM (SF-268): 149%; inhibition at 10 µM (HT29): 95.5%; inhibition at 10 µM (OVCAR-5): 143%; inhibition at 10 µM (HS 578 T): 132%; inhibition at 10 µM (OVCAR-8): 93.6%; inhibition at 10 µM (NCI-H460): 89.5%; inhibition at 10 µM (EKVX): 98%; inhibition at 10 µM (K-562): 93.1%; inhibition at 10 µM (HOP-92): 108%; inhibition at 10 µM (UO-31): 65.6%; inhibition at 10 µM (786-0): 65.9%
Cc1ccc(/C(CSc2nnc(-c3c[nH]c4ccccc34)n2-c2ccccc2)=N/O)cc1 [Compound 7h, (Z)-2-((5-(1H-Indol-3-yl)-4-phenyl-4H-1,2,4-triazol-3-yl)thio)-1-(p-tolyl)ethanone Oxime]	165	65.9	162	83.3	114	89.6	89.9	164	182	46.7	142	37.5	160	137	168	64.3	119	76.2	147	85.3	inhibition at 10 µM (A549/ATCC): 81.6%; inhibition at 10 µM (SR): 90.2%; inhibition at 10 µM (SW-620): 180%; inhibition at 10 µM (OVCAR-4): 187%; inhibition at 10 µM (SK-OV-3): 88.5%; inhibition at 10 µM (SF-268): 160%; inhibition at 10 µM (HT29): 93.7%; inhibition at 10 µM (OVCAR-5): 149%; inhibition at 10 µM (HS 578 T): 154%; inhibition at 10 µM (OVCAR-8): 128%; inhibition at 10 µM (NCI-H460): 98%; inhibition at 10 µM (EKVX): 71.8%; inhibition at 10 µM (K-562): 98.4%; inhibition at 10 µM (HOP-92): 106%; inhibition at 10 µM (UO-31): 93.5%; inhibition at 10 µM (786-0): 97.8%
Cc1ccc(C(=O)CSc2nnc(-c3c[nH]c4ccccc34)n2-c2ccccc2)cc1 [Compound 6h, 2-((5-(1H-Indol-3-yl)-4-phenyl-4H-1,2,4-triazol-3-yl)thio)-1-(p-tolyl)ethenone]	102	67.1	75.8	64.8	56.6	90.2	77.9	48.9	102	82.7	33.6	51	21.1	75.1	128	22.7	80.3	98.6	53.3	34.8	inhibition at 10 µM (A549/ATCC): 46.7%; inhibition at 10 µM (SR): 47%; inhibition at 10 µM (SW-620): 81%; inhibition at 10 µM (OVCAR-4): 116%; inhibition at 10 µM (SK-OV-3): 76%; inhibition at 10 µM (SF-268): 70.3%; inhibition at 10 µM (HT29): 92.9%; inhibition at 10 µM (OVCAR-5): 87%; inhibition at 10 µM (HS 578 T): 101%; inhibition at 10 µM (OVCAR-8): 88.7%; inhibition at 10 µM (NCI-H460): 70.7%; inhibition at 10 µM (EKVX): 47%; inhibition at 10 µM (K-562): 72.8%; inhibition at 10 µM (HOP-92): 108%; inhibition at 10 µM (UO-31): 69.7%; inhibition at 10 µM (786-0): 135%
C=CCn1c(SC/C(=N\O)c2ccc(Cl)cc2)nnc1-c1c[nH]c2ccccc12 [Compound 7e, (Z)-2-((4-allyl-5-(1H-indol-3-yl)-4H-1,2,4-triazol-3-yl)thio)-1-(4-chlorophenyl) Ethanone Oxime]	1.28	27.4	29.7	15.6	35	1.78	5.14	16	23.1	17.4	8.7	0.08	5.88	14.9	3.86	6.8	12.6	19.5	46.5	-7.49	inhibition at 10 µM (A549/ATCC): 6.38%; inhibition at 10 µM (SR): 12.1%; inhibition at 10 µM (SW-620): 9.5%; inhibition at 10 µM (OVCAR-4): 19.9%; inhibition at 10 µM (SK-OV-3): 3.52%; inhibition at 10 µM (SF-268): -1.1%; inhibition at 10 µM (HT29): 5.77%; inhibition at 10 µM (OVCAR-5): -2.62%; inhibition at 10 µM (HS 578 T): 12.7%; inhibition at 10 µM (OVCAR-8): 16.8%; inhibition at 10 µM (NCI-H460): 24.7%; inhibition at 10 µM (EKVX): 27.1%; inhibition at 10 µM (K-562): 39.3%; inhibition at 10 µM (HOP-92): 26.5%; inhibition at 10 µM (UO-31): 39.5%; inhibition at 10 µM (786-0): 11.1%
